Experimental findings from US20040087629A1, “Tartrate salts of thiazolidinedione derivative” (priority 2003, published 2004) are described below.

The conditions of the series: 1 month, product of Example 4.

Where two headings read alike, the source gives them in different places.

On to `CN(CCOc1ccc(CC2SC(=O)NC2=O)cc1)c1ccccn1.O=C(O)C(O)C(O)C(=O)O` [L(+) Tartrate, 5-[4-[2-(N-methyl-N-(2-pyridyl)amino)ethoxy]benzyl]thiazolidine-2,4-dione L-(+)-tartrate], for which the “HPLC assay (final content)” value is given as 97 % initial (40° C./75% Relative Humidity (RH), open exposure) and 98 % initial (50° C., closed).
